pEC50: −log10 of the molar value. Read-outs that look alike come from different tables or passages of the source. Peptide text beside a SMILES is read from it.

For one assay, the target named is T1, CRF2R (Homo sapiens, UniProt Q13324).
T1 sequence (Q13324 1-411): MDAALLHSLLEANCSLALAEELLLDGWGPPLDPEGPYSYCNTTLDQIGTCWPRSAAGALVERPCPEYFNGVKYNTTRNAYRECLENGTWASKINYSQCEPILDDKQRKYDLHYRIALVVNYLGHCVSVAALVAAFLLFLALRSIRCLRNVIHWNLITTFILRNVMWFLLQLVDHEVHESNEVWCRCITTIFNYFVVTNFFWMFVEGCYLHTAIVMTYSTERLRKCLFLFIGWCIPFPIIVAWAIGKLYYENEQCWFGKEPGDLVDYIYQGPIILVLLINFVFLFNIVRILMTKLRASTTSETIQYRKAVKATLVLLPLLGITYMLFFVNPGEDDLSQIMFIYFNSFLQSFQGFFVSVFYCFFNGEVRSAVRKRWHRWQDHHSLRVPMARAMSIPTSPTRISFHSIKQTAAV
The experiment in a line: CRF2R agonist activity (EC50, Emax), called comparative CRF binding. The assay is classed as cell-based. In a few lines: (§1)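 cAMP read-out: CRE-linked reporter (e.g. luciferase, CAT, GFP) or lysate cAMP in CRF1R- or CRF2R-expressing cells after peptide exposure; vehicle control comparison. Signal from any non-target CRFR subtracted.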

For the next assay, the target named is T2, CRF1R (Homo sapiens, UniProt P34998).
T2 sequence (P34998 24-415): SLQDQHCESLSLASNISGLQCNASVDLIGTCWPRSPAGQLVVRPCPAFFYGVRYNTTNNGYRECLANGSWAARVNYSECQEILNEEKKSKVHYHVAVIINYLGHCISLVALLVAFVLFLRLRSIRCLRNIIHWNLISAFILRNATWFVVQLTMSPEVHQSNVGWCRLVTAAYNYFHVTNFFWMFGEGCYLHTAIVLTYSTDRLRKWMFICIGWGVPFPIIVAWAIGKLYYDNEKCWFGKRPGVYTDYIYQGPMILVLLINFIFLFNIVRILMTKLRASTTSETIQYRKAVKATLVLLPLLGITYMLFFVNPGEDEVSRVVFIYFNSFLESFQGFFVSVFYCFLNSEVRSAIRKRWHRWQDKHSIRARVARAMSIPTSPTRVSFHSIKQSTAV
The experiment in a line: CRF1R agonist activity (EC50, Emax), called comparative CRF binding. The assay is classed as cell-based. In a few lines:
as §1

The pEC50 is the EC50 on a negative log10 scale, so that one unit is a factor of ten. As for `CC[C@H](C)[C@H](N)C(=O)N[C@H](C(=O)N[C@@H](CC(C)C)C(=O)N[C@@H](CO)C(=O)N[C@@H](CC(C)C)C(=O)N[C@@H](CC(=O)O)C(=O)N[C@H](C(=O)N1CCC[C@H]1C(=O)N[C@H](C(=O)NCC(=O)N[C@@H](CC(C)C)C(=O)N[C@@H](CC(C)C)C(=O)N[C@@H](CCC(N)=O)C(=O)N[C@H](C(=O)N[C@@H](CC(C)C)C(=O)N[C@@H](CC(C)C)C(=O)N[C@@H](CCC(=O)O)C(=O)N[C@@H](CCC(N)=O)C(=O)N[C@@H](C)C(=O)N[C@@H](CCCNC(=N)N)C(=O)N[C@@H](CCC(N)=O)C(=O)N[C@@H](CCC(=O)O)C(=O)N[C@@H](C)C(=O)N[C@@H](C)C(=O)N[C@@H](CCCNC(=N)N)C(=O)N[C@@H](CCC(=O)O)C(=O)N[C@@H](CCC(N)=O)C(=O)N[C@@H](C)C(=O)N[C@H](C(=O)N[C@H](C(=O)N[C@@H](CC(N)=O)C(=O)N[C@@H](C)C(=O)N[C@@H](CCCNC(=N)N)C(=O)N[C@H](C(=O)N[C@@H](CC(C)C)C(=O)N[C@@H](C)C(=O)N[C@@H](CCCNC(=N)N)C(=O)N[C@H](C(N)=O)C(C)C)[C@@H](C)CC)[C@@H](C)O)[C@@H](C)O)[C@@H](C)CC)[C@@H](C)CC)C(C)C)C(C)C` [compound 123] (H-IVLSLDVPIGLLQILLEQARQEAAREQATTNARILARV-NH2; N-terminus assumed), the pEC50 on CRF2R (read-out: CRF2R EC50) was 8.46; at CRF1R (read-out: CRF1R EC50), less than 6.00.

Take `CC[C@H](C)[C@H](N)C(=O)N[C@H](C(=O)N[C@@H](CC(C)C)C(=O)N[C@@H](CO)C(=O)N[C@@H](CC(C)C)C(=O)N[C@@H](CC(=O)O)C(=O)N[C@H](C(=O)N1CCC[C@H]1C(=O)N[C@H](C(=O)NCC(=O)N[C@@H](CC(C)C)C(=O)N[C@@H](CC(C)C)C(=O)N[C@@H](CCC(N)=O)C(=O)N[C@H](C(=O)N[C@@H](CC(C)C)C(=O)N[C@@H](CC(C)C)C(=O)N[C@@H](CCC(=O)O)C(=O)N[C@@H](CCC(N)=O)C(=O)N[C@@H](CCC(=O)O)C(=O)N[C@@H](CCCCN)C(=O)N[C@@H](CCC(N)=O)C(=O)N[C@@H](CCC(=O)O)C(=O)N[C@@H](C)C(=O)N[C@@H](C)C(=O)N[C@@H](CCCNC(=N)N)C(=O)N[C@@H](CCC(=O)O)C(=O)N[C@@H](CCC(N)=O)C(=O)N[C@@H](C)C(=O)N[C@H](C(=O)N[C@H](C(=O)N[C@@H](CC(N)=O)C(=O)N[C@@H](C)C(=O)N[C@@H](CCCNC(=N)N)C(=O)N[C@H](C(=O)N[C@@H](CC(C)C)C(=O)N[C@@H](C)C(=O)N[C@@H](CCCNC(=N)N)C(=O)N[C@H](C(N)=O)C(C)C)[C@@H](C)CC)[C@@H](C)O)[C@@H](C)O)[C@@H](C)CC)[C@@H](C)CC)C(C)C)C(C)C` [compound 125] (H-IVLSLDVPIGLLQILLEQEKQEAAREQATTNARILARV-NH2; N-terminus assumed): the pEC50 was 8.35 at CRF2R (read-out: CRF2R EC50) and less than 7.00 on CRF1R (read-out: CRF1R EC50).

On to `CC[C@H](C)[C@H](N)C(=O)N[C@H](C(=O)N[C@@H](CC(C)C)C(=O)N[C@@H](CO)C(=O)N[C@@H](CC(C)C)C(=O)N[C@@H](CC(=O)O)C(=O)N[C@H](C(=O)N1CCC[C@H]1C(=O)N[C@H](C(=O)NCC(=O)N[C@@H](CC(C)C)C(=O)N[C@@H](CC(C)C)C(=O)N[C@@H](CCC(N)=O)C(=O)N[C@H](C(=O)N[C@@H](CC(C)C)C(=O)N[C@@H](CC(C)C)C(=O)N[C@@H](CCC(=O)O)C(=O)N[C@@H](CCC(N)=O)C(=O)N[C@@H](CCCNC(=N)N)C(=O)N[C@@H](C)C(=O)N[C@@H](CCCNC(=N)N)C(=O)N[C@@H](C)C(=O)N[C@@H](C)C(=O)N[C@@H](CCCNC(=N)N)C(=O)N[C@@H](CCC(=O)O)C(=O)N[C@@H](CCC(N)=O)C(=O)N[C@@H](C)C(=O)N[C@H](C(=O)N[C@H](C(=O)N[C@@H](CC(N)=O)C(=O)N[C@@H](C)C(=O)N[C@@H](CCCNC(=N)N)C(=O)N[C@H](C(=O)N[C@@H](CC(C)C)C(=O)N[C@@H](C)C(=O)N[C@@H](CCCNC(=N)N)C(=O)N[C@H](C(N)=O)C(C)C)[C@@H](C)CC)[C@@H](C)O)[C@@H](C)O)[C@@H](C)CC)[C@@H](C)CC)C(C)C)C(C)C` [compound 137] (H-IVLSLDVPIGLLQILLEQRARAAREQATTNARILARV-NH2; N-terminus assumed), for which the results for the pEC50 at CRF2R (read-out: CRF2R EC50) and at CRF1R (read-out: CRF1R EC50) were 7.43 and less than 7.00, respectively.

For `CC[C@H](C)[C@H](N)C(=O)N[C@H](C(=O)N[C@@H](CC(C)C)C(=O)N[C@@H](CO)C(=O)N[C@@H](CC(C)C)C(=O)N[C@@H](CC(=O)O)C(=O)N[C@H](C(=O)N1CCC[C@H]1C(=O)N[C@H](C(=O)NCC(=O)N[C@@H](CC(C)C)C(=O)N[C@@H](CC(C)C)C(=O)N[C@@H](CCC(N)=O)C(=O)N[C@H](C(=O)N[C@@H](CC(C)C)C(=O)N[C@H](C(=O)N[C@@H](CCC(=O)O)C(=O)N[C@H](C(=O)N[C@@H](CCC(=O)O)C(=O)N[C@@H](CCCCN)C(=O)N[C@@H](CCC(N)=O)C(=O)N[C@@H](CCC(=O)O)C(=O)N[C@@H](CCCCN)C(=O)N[C@@H](CCC(=O)O)C(=O)N[C@@H](CCCCN)C(=O)N[C@@H](CCC(N)=O)C(=O)N[C@@H](CCC(N)=O)C(=O)N[C@@H](C)C(=O)N[C@@H](C)C(=O)N[C@@H](CC(N)=O)C(=O)N[C@@H](CC(N)=O)C(=O)N[C@@H](CCCNC(=N)N)C(=O)N[C@@H](CC(C)C)C(=O)N[C@@H](CC(C)C)C(=O)N[C@@H](CC(C)C)C(=O)N[C@@H](CC(=O)O)C(=O)N[C@H](C(=O)N[C@H](C(N)=O)[C@@H](C)CC)[C@@H](C)O)[C@@H](C)CC)[C@@H](C)CC)[C@@H](C)CC)[C@@H](C)CC)C(C)C)C(C)C` [compound 154] (H-IVLSLDVPIGLLQILIEIEKQEKEKQQAANNRLLLDTI-NH2; N-terminus assumed), the pEC50 is 7.99 at CRF2R and less than 7.00 at CRF1R.

Consider `CC[C@H](C)[C@H](N)C(=O)N[C@H](C(=O)N[C@@H](CC(C)C)C(=O)N[C@@H](CO)C(=O)N[C@@H](CC(C)C)C(=O)N[C@@H](CC(=O)O)C(=O)N[C@H](C(=O)N1CCC[C@H]1C(=O)N[C@H](C(=O)NCC(=O)N[C@@H](CC(C)C)C(=O)N[C@@H](CC(C)C)C(=O)N[C@@H](CCC(N)=O)C(=O)N[C@H](C(=O)N[C@@H](CC(C)C)C(=O)N[C@@H](CC(C)C)C(=O)N[C@@H](CCC(=O)O)C(=O)N[C@@H](CCSC)C(=O)N[C@H](C(=O)N[C@@H](CCCCN)C(=O)N[C@@H](C)C(=O)N[C@@H](CC(=O)O)C(=O)N[C@@H](CCC(N)=O)C(=O)N[C@@H](CC(C)C)C(=O)N[C@@H](C)C(=O)N[C@@H](CCC(N)=O)C(=O)N[C@@H](CCC(N)=O)C(=O)N[C@@H](C)C(=O)N[C@@H](Cc1c[nH]cn1)C(=O)N[C@@H](CO)C(=O)N[C@@H](CC(N)=O)C(=O)N[C@@H](CCCNC(=N)N)C(=O)N[C@@H](CCCCN)C(=O)N[C@@H](CC(C)C)C(=O)N[C@@H](CC(C)C)C(=O)N[C@@H](CC(=O)O)C(=O)N[C@H](C(=O)N[C@@H](C)C(N)=O)[C@@H](C)CC)[C@@H](C)O)[C@@H](C)CC)[C@@H](C)CC)C(C)C)C(C)C` [compound 155] (H-IVLSLDVPIGLLQILLEMTKADQLAQQAHSNRKLLDIA-NH2; N-terminus assumed), for which the pEC50 on CRF2R (read-out: CRF2R EC50) is 7.69; on CRF1R (read-out: CRF1R EC50), 7.39.

For the molecule `CC[C@H](C)[C@H](N)C(=O)N[C@H](C(=O)N[C@@H](CC(C)C)C(=O)N[C@@H](CO)C(=O)N[C@@H](CC(C)C)C(=O)N[C@@H](CC(=O)O)C(=O)N[C@H](C(=O)N1CCC[C@H]1C(=O)N[C@H](C(=O)NCC(=O)N[C@@H](CC(C)C)C(=O)N[C@@H](CC(C)C)C(=O)N[C@@H](CCC(N)=O)C(=O)N[C@H](C(=O)N[C@@H](CC(C)C)C(=O)N[C@@H](CC(C)C)C(=O)N[C@@H](CCC(=O)O)C(=O)N[C@@H](CCC(N)=O)C(=O)N[C@H](C(=O)N[C@@H](CCCCN)C(=O)N[C@@H](C)C(=O)N[C@@H](CC(=O)O)C(=O)N[C@@H](CCC(N)=O)C(=O)N[C@@H](CC(C)C)C(=O)N[C@@H](C)C(=O)N[C@@H](CCC(N)=O)C(=O)N[C@@H](CCC(N)=O)C(=O)N[C@@H](C)C(=O)N[C@@H](Cc1c[nH]cn1)C(=O)N[C@@H](CO)C(=O)N[C@@H](CC(N)=O)C(=O)N[C@@H](CCCNC(=N)N)C(=O)N[C@@H](CCCCN)C(=O)N[C@@H](CC(C)C)C(=O)N[C@@H](CC(C)C)C(=O)N[C@@H](CC(=O)O)C(=O)N[C@H](C(=O)N[C@@H](C)C(N)=O)[C@@H](C)CC)[C@@H](C)O)[C@@H](C)CC)[C@@H](C)CC)C(C)C)C(C)C` [compound 159] (H-IVLSLDVPIGLLQILLEQTKADQLAQQAHSNRKLLDIA-NH2; N-terminus assumed), the pEC50 is 7.04 at CRF2R (read-out: CRF2R EC50) and less than 7.00 at CRF1R (read-out: CRF1R EC50).

For the origin of these results see US7192924B2, “Corticotropin releasing factor 2 receptor agonists” (priority 2002, dated 2007).
